Assay results published in US10654836B2, “Pyrimidine derivative, method for preparing same and use thereof in medicine” (Zhejiang Hisun Pharmaceutical Co., Ltd., priority 2016, dated 2020).

Columns and labels:
[1] = Body weight and weight loss rate of Huh7 tumor-bearing BALB/c nude mice during administration; assay type: in vivo; conditions: 25 mg/kg IP, bid
Method: (§1) Each group of animals was administrated (intraperitoneal injection (ip) or oral administration (po)) a test substance twice a day (bid) at a fix time per day according to the body weight of the animals. The first dose was administered on the day of grouping ([…]), and continued for 22 days, the body weight of the animals was recorded daily.
The calculation formula for the weight loss rate of animals is (see FIG. 3 for the results): Weight loss rate of animals=100%×(BWinitial−BWt)/BWinitial
wherein, BWt represents the body weight of the animal at each measurement during administration; BWinitial represents the body weight of the animal at the time of grouping administration.

[2] = tested on: hepatocellular carcinoma tumor cell Huh7 xenografts; assay: Growth inhibition of Huh7 xenografts in tumor-bearing BALB/c nude mice; assay type: in vivo; conditions: bid
Method: On day 0, Huh7 cells were cultured in DMEM medium containing 10% of fetal bovine serum, 100 U of penicillin, and 100 μg/mL of streptomycin. And cultured in an incubator of 37° C., 5% CO2.
Each mouse was inoculated subcutaneously in the right axilla with 150 μL of cell suspension (5.0×10^6 cells/mouse) under sterile conditions. On day 12 after inoculation, when the tumor grew to a volume of 200-300 mm^3, mice with similar tumor volume and good shape were selected (the shape was as single spherical as possible, no irregular shape or multiple tumors gathered together) and divided into 5 groups, each group had 9 mice.
as §1
The formation of tumor in the inoculated part of each group of animals was observed. The long diameter (Y) and short diameter (X) of the tumor nodules were measured twice a week using vernier calipers and calculated according to the following formula: Volume of tumor nodules(V): V=(X^2Y)/2.
Evaluation index of antitumor activity: tumor growth inhibition rate TGI (%), relative tumor proliferation rate T/C (%).
The relative tumor volume (RTV) is calculated as: RTV=100×TVt/TVinitial
wherein, TVinitial is the tumor volume measured at the time of grouping administration; TVt is the tumor volume at each measurement during administration.
The calculation formula for the relative tumor proliferation rate (% T/C) is: % T/C=100%×(RTVT/RTVC)
wherein, RTVT represents RTV of the treatment group; RTVC represents RTV of the solvent control group.
wherein, TVt(T) represents the tumor volume at each measurement in the treatment group; TVinitial(T) represents the tumor volume of the treatment group at the time of grouping administration; TVt(C) represents the tumor volume at each measurement in the solvent control group; TVinitial(C) represents the tumor volume of the solvent control group at the time of grouping administration.
wherein, WC represents the tumor weight of the control group; WT represents the tumor weight of the treatment group.

[3] = tested on: hepatocellular carcinoma tumor cells Huh7; assay: Huh7 tumor cell proliferation inhibition (CCK-8); assay type: cell-based, human; conditions: 72 hours culture
Method: For the FGFR4 subtype, hepatocellular carcinoma tumor cells Huh7 (purchased from the Cell Resource Center of Shanghai Institutes for Biological Sciences, Chinese Academy of Sciences) were used to determine the inhibition against the activity of hepatocellular carcinoma tumor cells. Huh7 cells were cultured in a DMEM medium containing 10% of fetal bovine serum, 100 U of penicillin and 100 μg/mL of streptomycin. Cultured in an incubator of 37° C., 5% CO2. Hepatocellular carcinoma tumor cell activity was measured by using a kit of Cell Counting Kit-8 (Dojindo, Dojindo Molecular Technologies, Inc).
The experimental method was carried out according to the steps of the kit instructions, and is briefly described as follows: the test compound was first dissolved in DMSO to prepare a stock solution, and then gradiently diluted with the corresponding medium of the cells to prepare a test sample, and the final concentration of the compound was in the range of 30 μM to 0.01 nM. Tumor cells in the logarithmic phase were seeded into 96-well cell culture plates at a suitable density, cultured in an incubator of 37° C., 5% CO2 overnight, then test compound samples were added and continued to culture the cells for 72 hours.

[4] = 25 mg/kg IP, end of the experiment

C=CC(=O)Nc1cc(N2CCN(CC)CC2)ccc1Nc1cc(N(C)C(=O)Nc2c(Cl)c(OC)cc(OC)c2Cl)ncn1 [Example 108 of WO2015057938, reference compound]
Animal body weight ± standard error ([1]; Day 13 after inoculation): 18.0 ± 0.3 g | weight loss rate (%) ([1]; Day 13 after inoculation): 0% | Animal body weight ± standard error ([1]; Day 16 after inoculation): 18.1 ± 0.3 g | weight loss rate (%) ([1]; Day 16 after inoculation): −0.62% | Animal body weight ± standard error ([1]; Day 20 after inoculation): 19.2 ± 0.4 g | weight loss rate (%) ([1]; Day 20 after inoculation): −6.7% | Animal body weight ± standard error ([1]; Day 23 after inoculation): 18.3 ± 0.2 g | weight loss rate (%) ([1]; Day 23 after inoculation): −2.0% | Animal body weight ± standard error ([1]; Day 27 after inoculation): 18.4 ± 0.3 g | weight loss rate (%) ([1]; Day 27 after inoculation): −2.7% | Animal body weight ± standard error ([1]; Day 30 after inoculation): 18.7 ± 0.2 g | weight loss rate (%) ([1]; Day 30 after inoculation): −4.2% | Animal body weight ± standard error ([1]; Day 34 after inoculation): 18.9 ± 0.3 g | weight loss rate (%) ([1]; Day 34 after inoculation): −5.0% | Tumor growth inhibition rate (TGI %) ([2]; 25 mg/kg IP, Day 16 after inoculation): 34% | Tumor growth inhibition rate (TGI %) ([2]; 25 mg/kg IP, Day 20 after inoculation): 21% | Tumor growth inhibition rate (TGI %) ([2]; 25 mg/kg IP, Day 23 after inoculation): 21% | Tumor growth inhibition rate (TGI %) ([2]; 25 mg/kg IP, Day 27 after inoculation): 29% | Tumor growth inhibition rate (TGI %) ([2]; 25 mg/kg IP, Day 30 after inoculation): 24% | Tumor growth inhibition rate (TGI %) ([2]; 25 mg/kg IP, Day 34 after inoculation): 16% | Tumor weight (g) Mean ± standard error [2, 4]: 0.9106 ± 0.0583 g | Tumor weight inhibition rate (%) [2, 4]: 2.2% | IC50 [3]: 18 nM

C=CC(=O)Nc1cc(N2CCN(CC)C3(CC3)C2)ccc1Nc1cc(N(C)C(=O)Nc2c(Cl)c(OC)cc(OC)c2Cl)ncn1 [Example 5, N-(2-((6-(3-(2,6-Dichloro-3,5-dimethoxyphenyl)-1-methylureido)pyrimidin-4-yl)amino)-5-(4-ethyl-4,7-diazaspiro[2.5]octan-7-yl)phenyl)acrylamide]
Tumor weight (g) Mean ± standard error [2, 4]: 0.8393 ± 0.0602 g | Tumor weight (g) Mean ± standard error ([2]; 50 mg/kg IP, end of the experiment): 0.6473 ± 0.0597 g | Tumor weight (g) Mean ± standard error ([2]; 300 mg/kg PO, end of the experiment): 0.0562 ± 0.0069 g
